Reference: US20090291088A1, “THERAPEUTIC COMBINATIONS OF ANTI-IGF-1R ANTIBODIES AND OTHER COMPOUNDS” (Biogen Idec MA Inc., priority 2008, published 2009)
One block for each compound: values may come before it.

Key:
[1] = tested on: NSCLC, pancreatic, and colon cancer cell lines; experiment: Cell viability, M13-C06 and PD0325901 alone or combined; assay type: cell-based; conditions: PD0325901 single agent
Procedure: Cells were plated at 5000 cells/well in 96-well tissue culture plates in RPMI-1640 containing 10% fetal bovine serum, then treated with M13-C06 and PD0325901 as single agents or in combination at 1:3 serial dilutions with a starting concentration of 200 nM for M13-C06 and 10 microM for PD0325901. Cell viability was determined three or five days later by measuring ATP levels with CELL TITER GLO™ reagent from Promega.

[2] = tested on: IGF-1R-Fc; experiment: Surface plasmon resonance analysis of the IGF-1R-Fc mutant library (46 mutants); assay type: binding, human; conditions: for C06 binding: M13-C06 Fab; for C06 binding / C03 binding / G11 binding / P1E2 binding / αIR3 binding: KD relative to WT hIGF-1R-Fc; for C03 binding: M14-C03 Fab; for G11 binding: M14-G11 Fab; for P1E2 binding: P1E2 antibody; for αIR3 binding: αIR3 antibody; for loss in affinity for M14-G11 Fab based on the measured KD: mutant versus wild-type
Procedure: Surface plasmon resonance (SPR) experiments were performed on a Biacore 3000 instrument set to 25° C. Both mIGF-1R-Fc and hIGF-1R-Fc bind with high apparent affinity to research grade CM5 sensorchip surfaces containing immobilized M13-C06, M14-C03, and M14-G11. The antibody sensorchip surfaces were prepared by injecting each antibody (diluted 100 μg/mL in 10 mM Acetate, pH 4.0) over EDC/NHS-activated sensorchip surfaces according to the standard protocol of the manufacturer. The ability of mIGF-1R-Fc to bind the antibody surfaces was the result of high apparent avidity of the protein. Both hIGF-1R-Fc and mIGF-1R-Fc proteins oligomerize due to the incorporation of two separate homodimeric regions (IGF-1R and IgG1-Fc). To distinguish between actual high affinity antibody binding to hIGF-1R-Fc and low affinity antibody binding to mIGF-1R-Fc, the receptor-Fc fusions were captured on the M13-C06 and M14-G11 sensorchip surfaces followed by an additional injection of antibody (αIR3 and P1E2) or antibody Fab (M13-C06, M14-C03, and M14-G11). […] After, completion of the receptor-Fc loading step, flow rates were elevated to 5 μl/min. Solutions containing M13-C06 Fab or αIR3 antibody at 10 nM, 3 nM, or 1 nM or M14-C03 Fab, M14-G11 Fab, or P1E2 antibody at 30 nM, 10 nM, or 3 nM were injected (50 μL) subsequent to the loading of each receptor-Fc construct. Dissociation was measured for 7 minutes after the antibody injections were complete. Finally, the flow rate was elevated to 30 μL/min and the chip surfaces were regenerated by 2×10 μL injections of 0.1 M glycine, pH 2.
M13-C06, M14-C03, M14-G11, P1E2 and αIR3 were assayed for their ability to interact with each of the mutant IGF-1R-Fc fusion constructs using surface plasmon resonance (Biacore). To remove the uncertain concentrations of the IGF-1R-Fc fusion constructs as a variable in the assay, each mutant construct was captured on a research grade CM5 chip containing ˜10,000 RU immobilized […], M14-C03, and M14-G11 antibody. To enhance our ability to visualize attenuations in antibody binding to the captured mutant IGF-1R constructs, we utilized enzymatically derived M13-C06, M14-C03, and M14-G11 antigen binding fragments (Fabs).

[3] = tested on: IGF-1R; experiment: Biacore analysis of the IGF-1R-Fc mutant library: M13-C06 Fab binding to receptor-Fc captured on M13-C06 chip; set-up: species or system human; conditions: for Biacore Relative RUmax: M13-C06 Fab binding to mutant hIGF-1R-Fc captured on M13-C06 chip
Text: Both mIGF-1R-Fc and hIGF-1R-Fc bind with high apparent affinity to the M13-C06, M14-C03, and M14-G11 sensorchip surfaces described above due to their highly multivalent nature induced by the incorporation of two separate homodimeric regions (IGF-1R and IgG1-Fc). To distinguish between the actual high affinity binding hIGF-1R-Fc to M13-C06 and the low affinity binding of mIGF-1R-Fc to M13-C06, the receptor-Fc fusions were captured on the M13-C06 sensorchip surface followed by an additional soluble M13-C06 Fab binding event. […] After, completion of the receptor-Fc loading step, flow rates were elevated to 5 μl/min. 10 nM, […], and 1 nM M13-C06 Fab concentrations were injected (50 μL) subsequent to the loading of each receptor-Fc construct. At the end of each sensorgram, the flow rate was elevated to 30 μl/min and the chip surface was regenerated by 2×10 μL injections of 0.1 M glycine, pH 2.

Compound: O=C(NOC[C@H](O)CO)c1ccc(F)c(F)c1Nc1ccc(I)cc1F [PD0325901, (R)—N-(2,3-dihydroxypropoxy)-3,4-difluoro-2-(2-fluoro-4-iodophenylamino)benzamide, reference compound]
cell growth ([1]; 7 NSCLC cell lines): five of them were sensitive to PD0325901 inhibition | cell growth ([1]; BxPC3 and Panc-1): intermediate response | cell growth ([1]; H460 and H1650): showed less response | cell growth ([1]; MiaPaCa2 and Su86.86): sensitive to PD0325901 as a single agent

Compound: SD009: hIGF-1R-Fc mutant E264K
C06 binding [2]: NE (No effect (NE): measured KD within 2.5-fold of WT hIGF-1R-Fc) | C03 binding [2]: NE (No effect (NE): measured KD within 2.5-fold of WT hIGF-1R-Fc) | G11 binding [2]: NE (No effect (NE): measured KD within 2.5-fold of WT hIGF-1R-Fc) | P1E2 binding [2]: NE (No effect (NE): measured KD within 2.5-fold of WT hIGF-1R-Fc) | αIR3 binding [2]: NE (No effect (NE): measured KD within 2.5-fold of WT hIGF-1R-Fc) | Biacore Relative RUmax [3]: 0.6

Compound: SD011: hIGF-1R-Fc mutant G285S_S286T
C06 binding [2]: NE (No effect (NE): measured KD within 2.5-fold of WT hIGF-1R-Fc) | C03 binding [2]: NE (No effect (NE): measured KD within 2.5-fold of WT hIGF-1R-Fc) | G11 binding [2]: NE (No effect (NE): measured KD within 2.5-fold of WT hIGF-1R-Fc) | P1E2 binding [2]: NE (No effect (NE): measured KD within 2.5-fold of WT hIGF-1R-Fc) | αIR3 binding [2]: NE (No effect (NE): measured KD within 2.5-fold of WT hIGF-1R-Fc) | Biacore Relative RUmax [3]: 1.8

Compound: SD016: hIGF-1R-Fc mutant D531Q_V532N
C06 binding [2]: NE (No effect (NE): measured KD within 2.5-fold of WT hIGF-1R-Fc) | C03 binding [2]: NE (No effect (NE): measured KD within 2.5-fold of WT hIGF-1R-Fc) | G11 binding [2]: NE (No effect (NE): measured KD within 2.5-fold of WT hIGF-1R-Fc) | Biacore Relative RUmax [3]: 2.0

Compound: SD017: hIGF-1R-Fc mutant I650S
C06 binding [2]: NE (No effect (NE): measured KD within 2.5-fold of WT hIGF-1R-Fc) | C03 binding [2]: NE (No effect (NE): measured KD within 2.5-fold of WT hIGF-1R-Fc) | G11 binding [2]: NE (No effect (NE): measured KD within 2.5-fold of WT hIGF-1R-Fc) | Biacore Relative RUmax [3]: 2.0

Compound: SD019: hIGF-1R-Fc mutant E739W L741F (Table 20), A739W_I741F (Table 17)
C06 binding [2]: NE (No effect (NE): measured KD within 2.5-fold of WT hIGF-1R-Fc) | C03 binding [2]: NE (No effect (NE): measured KD within 2.5-fold of WT hIGF-1R-Fc) | G11 binding [2]: NE (No effect (NE): measured KD within 2.5-fold of WT hIGF-1R-Fc) | Biacore Relative RUmax [3]: 1.9

Now from value to compound, other results behind:

Biacore Relative RUmax [3]: 1.7
Compound: SD006: hIGF-1R-Fc mutant A227K
C06 binding [2]: NE (No effect (NE): measured KD within 2.5-fold of WT hIGF-1R-Fc) | C03 binding [2]: NE (No effect (NE): measured KD within 2.5-fold of WT hIGF-1R-Fc) | G11 binding [2]: NE (No effect (NE): measured KD within 2.5-fold of WT hIGF-1R-Fc) | P1E2 binding [2]: NE (No effect (NE): measured KD within 2.5-fold of WT hIGF-1R-Fc) | αIR3 binding [2]: NE (No effect (NE): measured KD within 2.5-fold of WT hIGF-1R-Fc)

Biacore Relative RUmax [3]: 1.3
Compound: SD007: hIGF-1R-Fc mutant N237G
C06 binding [2]: NE (No effect (NE): measured KD within 2.5-fold of WT hIGF-1R-Fc) | C03 binding [2]: NE (No effect (NE): measured KD within 2.5-fold of WT hIGF-1R-Fc) | G11 binding [2]: NE (No effect (NE): measured KD within 2.5-fold of WT hIGF-1R-Fc) | P1E2 binding [2]: NE (No effect (NE): measured KD within 2.5-fold of WT hIGF-1R-Fc) | αIR3 binding [2]: NE (No effect (NE): measured KD within 2.5-fold of WT hIGF-1R-Fc)

loss in affinity for M14-G11 Fab based on the measured KD [2]: approximately 3 fold | Biacore Relative RUmax [3]: 1.5
Compound: SD008: hIGF-1R-Fc mutant S257F (Table 20), S258F (Table 17)
C06 binding [2]: NE (No effect (NE): measured KD within 2.5-fold of WT hIGF-1R-Fc) | C03 binding [2]: NE (No effect (NE): measured KD within 2.5-fold of WT hIGF-1R-Fc) | G11 binding [2]: W (Weak (W): measured KD between 2.5-10-fold higher than WT) | P1E2 binding [2]: W (Weak (W): measured KD between 2.5-10-fold higher than WT) | αIR3 binding [2]: NE (No effect (NE): measured KD within 2.5-fold of WT hIGF-1R-Fc)

Biacore Relative RUmax [3]: 0.8
Compound: SD010: hIGF-1R-Fc mutant G271D
C06 binding [2]: NE (No effect (NE): measured KD within 2.5-fold of WT hIGF-1R-Fc) | C03 binding [2]: NE (No effect (NE): measured KD within 2.5-fold of WT hIGF-1R-Fc) | G11 binding [2]: NE (No effect (NE): measured KD within 2.5-fold of WT hIGF-1R-Fc) | P1E2 binding [2]: NE (No effect (NE): measured KD within 2.5-fold of WT hIGF-1R-Fc) | αIR3 binding [2]: NE (No effect (NE): measured KD within 2.5-fold of WT hIGF-1R-Fc)

loss in affinity for M14-G11 Fab based on the measured KD [2]: approximately 3 fold | Biacore Relative RUmax [3]: 0.3
Compound: SD012: hIGF-1R-Fc mutant E303G
C06 binding [2]: NE (No effect (NE): measured KD within 2.5-fold of WT hIGF-1R-Fc) | C03 binding [2]: NE (No effect (NE): measured KD within 2.5-fold of WT hIGF-1R-Fc) | G11 binding [2]: W (Weak (W): measured KD between 2.5-10-fold higher than WT) | P1E2 binding [2]: W (Weak (W): measured KD between 2.5-10-fold higher than WT) | αIR3 binding [2]: W (Weak (W): measured KD between 2.5-10-fold higher than WT)

Biacore Relative RUmax [3]: 0.7
Compound: SD013: hIGF-1R-Fc mutant D405K
C06 binding [2]: NE (No effect (NE): measured KD within 2.5-fold of WT hIGF-1R-Fc) | C03 binding [2]: NE (No effect (NE): measured KD within 2.5-fold of WT hIGF-1R-Fc) | G11 binding [2]: NE (No effect (NE): measured KD within 2.5-fold of WT hIGF-1R-Fc)

Biacore Relative RUmax [3]: 0.6
Compound: SD014: hIGF-1R-Fc mutant K412A_A413Q
C06 binding [2]: NE (No effect (NE): measured KD within 2.5-fold of WT hIGF-1R-Fc) | C03 binding [2]: NE (No effect (NE): measured KD within 2.5-fold of WT hIGF-1R-Fc) | G11 binding [2]: NE (No effect (NE): measured KD within 2.5-fold of WT hIGF-1R-Fc) | P1E2 binding [2]: NE (No effect (NE): measured KD within 2.5-fold of WT hIGF-1R-Fc) | αIR3 binding [2]: NE (No effect (NE): measured KD within 2.5-fold of WT hIGF-1R-Fc)

binding activity toward M13-C06 ([3]; SPR and tr-FRET, both assays): virtually no binding activity
Compound: SD015: hIGF-1R-Fc mutant H464E (Table 20), E464H
effect of mutation on M13-C06 and M14-C03 Fab binding [2]: complete ablation of the binding reaction | C06 binding [2]: S (Strong (S): binding to antibody was ablated by mutation) | C03 binding [2]: S (Strong (S): binding to antibody was ablated by mutation) | G11 binding [2]: NE (No effect (NE): measured KD within 2.5-fold of WT hIGF-1R-Fc)

Biacore Relative RUmax [3]: 1.7
Compound: SD018: hIGF-1R-Fc mutant E665A
C06 binding [2]: NE (No effect (NE): measured KD within 2.5-fold of WT hIGF-1R-Fc) | C03 binding [2]: NE (No effect (NE): measured KD within 2.5-fold of WT hIGF-1R-Fc) | G11 binding [2]: NE (No effect (NE): measured KD within 2.5-fold of WT hIGF-1R-Fc)
